According to PubChem BioAssay (NCI):
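Dose response: 5 concentrations. Exposure: 48 h. Format: 96-well plates. Endpoint: linear interpolation; highest concentration if not reached. TGI marks complete inhibition of growth.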

Key:
Assay in all cases: NCI tumour cell line growth inhibition, 48 h
HCC-2998 colon = tested on: HCC-2998 colon
OVCAR-8 ovarian = tested on: OVCAR-8 ovarian
IGROV1 ovarian = tested on: IGROV1 ovarian
BT-549 breast = tested on: BT-549 breast
NCI-H23 lung = tested on: NCI-H23 lung
HCT-15 colon = tested on: HCT-15 colon
UACC-257 melanoma = tested on: UACC-257 melanoma
RXF 393 renal = tested on: RXF 393 renal
786-0 renal = tested on: 786-0 renal
SR leukemia = tested on: SR leukemia
MDA-MB-435 = tested on: MDA-MB-435
OVCAR-3 ovarian = tested on: OVCAR-3 ovarian
MDA-N = tested on: MDA-N
NCI-H226 lung = tested on: NCI-H226 lung
SK-MEL-28 melanoma = tested on: SK-MEL-28 melanoma
A498 renal = tested on: A498 renal
CCRF-CEM leukemia = tested on: CCRF-CEM leukemia
UACC-62 melanoma = tested on: UACC-62 melanoma
T-47D breast = tested on: T-47D breast
EKVX NSCLC = tested on: EKVX NSCLC
HOP-92 NSCLC = tested on: HOP-92 NSCLC
RPMI-8226 leukemia = tested on: RPMI-8226 leukemia
NCI-H522 lung = tested on: NCI-H522 lung
SK-MEL-2 melanoma = tested on: SK-MEL-2 melanoma
SK-MEL-5 melanoma = tested on: SK-MEL-5 melanoma
SF-268 CNS = tested on: SF-268 CNS
CAKI-1 renal = tested on: CAKI-1 renal
OVCAR-4 ovarian = tested on: OVCAR-4 ovarian
SK-OV-3 ovarian = tested on: SK-OV-3 ovarian
COLO 205 colon = tested on: COLO 205 colon
UO-31 renal = tested on: UO-31 renal
SF-539 CNS = tested on: SF-539 CNS
LOX IMVI melanoma = tested on: LOX IMVI melanoma
HS 578T breast = tested on: HS 578T breast
M14 melanoma = tested on: M14 melanoma
HL-60(TB) leukemia = tested on: HL-60(TB) leukemia
K-562 leukemia = tested on: K-562 leukemia
SW-620 colon = tested on: SW-620 colon
HCT-116 colon = tested on: HCT-116 colon
ACHN renal = tested on: ACHN renal
MALME-3M melanoma = tested on: MALME-3M melanoma
NCI-H460 lung = tested on: NCI-H460 lung
HOP-62 NSCLC = tested on: HOP-62 NSCLC
SNB-75 CNS = tested on: SNB-75 CNS
DU-145 prostate = tested on: DU-145 prostate
SNB-19 CNS = tested on: SNB-19 CNS
HT29 colon = tested on: HT29 colon
OVCAR-5 ovarian = tested on: OVCAR-5 ovarian
MCF7 breast = tested on: MCF7 breast
A549 NSCLC = tested on: A549 NSCLC
MOLT-4 leukemia = tested on: MOLT-4 leukemia
PC-3 prostate = tested on: PC-3 prostate
SF-295 CNS = tested on: SF-295 CNS
SN12C renal = tested on: SN12C renal
KM12 colon = tested on: KM12 colon
NCI/ADR-RES ovarian = tested on: NCI/ADR-RES ovarian
TK-10 renal = tested on: TK-10 renal
U251 CNS = tested on: U251 CNS

## COc1ccc(C)cc1Nc1nnc(-c2ccccc2N)s1
HCC-2998 colon
  TGI: > 100 µM
OVCAR-8 ovarian
  TGI: > 100 µM
IGROV1 ovarian
  TGI: > 100 µM
BT-549 breast
  TGI: > 100 µM
NCI-H23 lung
  TGI: > 100 µM
HCT-15 colon
  TGI: > 100 µM
UACC-257 melanoma
  TGI: > 100 µM
RXF 393 renal
  TGI: > 100 µM
786-0 renal
  TGI: > 100 µM
SR leukemia
  TGI: 46.7 µM
MDA-MB-435
  TGI: > 100 µM
OVCAR-3 ovarian
  TGI: > 100 µM
MDA-N
  TGI: > 100 µM
NCI-H226 lung
  TGI: > 100 µM
SK-MEL-28 melanoma
  TGI: > 100 µM
A498 renal
  TGI: > 100 µM
CCRF-CEM leukemia
  TGI: > 100 µM
UACC-62 melanoma
  TGI: > 100 µM
T-47D breast
  TGI: > 100 µM
EKVX NSCLC
  TGI: 90.5 µM
HOP-92 NSCLC
  TGI: > 100 µM
RPMI-8226 leukemia
  TGI: 53.4 µM
NCI-H522 lung
  TGI: 58.7 µM
SK-MEL-2 melanoma
  TGI: 52.3 µM
SK-MEL-5 melanoma
  TGI: 29.4 µM
SF-268 CNS
  TGI: > 100 µM
CAKI-1 renal
  TGI: > 100 µM
OVCAR-4 ovarian
  TGI: > 100 µM
SK-OV-3 ovarian
  TGI: > 100 µM
COLO 205 colon
  TGI: > 100 µM
UO-31 renal
  TGI: > 100 µM
SF-539 CNS
  TGI: > 100 µM
LOX IMVI melanoma
  TGI: > 100 µM
HS 578T breast
  TGI: > 100 µM
M14 melanoma
  TGI: > 100 µM
HL-60(TB) leukemia
  TGI: 73 µM
K-562 leukemia
  TGI: > 100 µM
SW-620 colon
  TGI: > 100 µM
HCT-116 colon
  TGI: > 100 µM
ACHN renal
  TGI: > 100 µM
MALME-3M melanoma
  TGI: > 100 µM
NCI-H460 lung
  TGI: > 100 µM
HOP-62 NSCLC
  TGI: > 100 µM
SNB-75 CNS
  TGI: > 100 µM
DU-145 prostate
  TGI: > 100 µM
SNB-19 CNS
  TGI: > 100 µM
HT29 colon
  TGI: > 100 µM
OVCAR-5 ovarian
  TGI: > 100 µM
MCF7 breast
  TGI: > 100 µM
A549 NSCLC
  TGI: > 100 µM
MOLT-4 leukemia
  TGI: 15 µM
PC-3 prostate
  TGI: > 100 µM
SF-295 CNS
  TGI: > 100 µM
SN12C renal
  TGI: > 100 µM
KM12 colon
  TGI: > 100 µM
NCI/ADR-RES ovarian
  TGI: > 100 µM

## S=C1SCN(Cc2ccco2)CN1c1ccc(Br)cc1
HCC-2998 colon
  TGI: 27.5 µM
OVCAR-8 ovarian
  TGI: 93.9 µM
IGROV1 ovarian
  TGI: 45.7 µM
BT-549 breast
  TGI: 44 µM
NCI-H23 lung
  TGI: 29.2 µM
HCT-15 colon
  TGI: 26.9 µM
UACC-257 melanoma
  TGI: 42.6 µM
RXF 393 renal
  TGI: > 100 µM
786-0 renal
  TGI: 33 µM
SR leukemia
  TGI: 31.4 µM
MDA-MB-435
  TGI: 36 µM
OVCAR-3 ovarian
  TGI: 21.1 µM
MDA-N
  TGI: 94.8 µM
NCI-H226 lung
  TGI: 69.1 µM
SK-MEL-28 melanoma
  TGI: 43.1 µM
A498 renal
  TGI: 66.1 µM
CCRF-CEM leukemia
  TGI: 67.4 µM
UACC-62 melanoma
  TGI: 15.2 µM
T-47D breast
  TGI: > 100 µM
EKVX NSCLC
  TGI: 64.6 µM
HOP-92 NSCLC
  TGI: 60.7 µM
RPMI-8226 leukemia
  TGI: 35.3 µM
TK-10 renal
  TGI: 65.9 µM
NCI-H522 lung
  TGI: 23.7 µM
SK-MEL-2 melanoma
  TGI: 32 µM
U251 CNS
  TGI: 57.9 µM
SK-MEL-5 melanoma
  TGI: 24.5 µM
SF-268 CNS
  TGI: 40.7 µM
CAKI-1 renal
  TGI: 42.7 µM
OVCAR-4 ovarian
  TGI: 37.5 µM
SK-OV-3 ovarian
  TGI: 73.2 µM
COLO 205 colon
  TGI: 32 µM
UO-31 renal
  TGI: 44.9 µM
SF-539 CNS
  TGI: 36.2 µM
LOX IMVI melanoma
  TGI: 13 µM
HS 578T breast
  TGI: > 100 µM
M14 melanoma
  TGI: 29 µM
HL-60(TB) leukemia
  TGI: 45.8 µM
K-562 leukemia
  TGI: 15.9 µM
SW-620 colon
  TGI: 62.3 µM
HCT-116 colon
  TGI: 42.2 µM
ACHN renal
  TGI: 64.2 µM
MALME-3M melanoma
  TGI: 35.3 µM
NCI-H460 lung
  TGI: 28.5 µM
HOP-62 NSCLC
  TGI: 51.9 µM
SNB-75 CNS
  TGI: > 100 µM
DU-145 prostate
  TGI: > 100 µM
SNB-19 CNS
  TGI: 72.2 µM
HT29 colon
  TGI: 39.5 µM
OVCAR-5 ovarian
  TGI: 34.5 µM
MCF7 breast
  TGI: 31.3 µM
A549 NSCLC
  TGI: 54.3 µM
MOLT-4 leukemia
  TGI: 47.4 µM
PC-3 prostate
  TGI: 37 µM
SF-295 CNS
  TGI: 28.7 µM
SN12C renal
  TGI: 66.4 µM
KM12 colon
  TGI: 31.7 µM
NCI/ADR-RES ovarian
  TGI: 77.6 µM
